Reference: article PMC5598522 (Toxicology Reports, 2014)

Test: Quantitative whole body autoradiography
Type: in vivo, rat
Details: [3H] Ticagrelor 3 mg/kg
[1] = pregnant female rat (Day 18 of gestation), 5 min
[2] = pregnant female rat (Day 18 of gestation), 0.5 h
[3] = pregnant female rat (Day 18 of gestation), 2 h
[4] = pregnant female rat (Day 18 of gestation), 4 h

**Q.** With `CCCSc1nc(N[C@@H]2C[C@H]2c2ccc(F)c(F)c2)c2nnn([C@@H]3C[C@H](OCCO)[C@@H](O)[C@H]3O)c2n1` [Ticagrelor] as the molecule, how does the Heart radioactivity (male rat, 2 h) read?
**A.** 1.73 μg equivalent/g

**Q.** And the “Heart radioactivity, fold of blood value” (male rat, 2 h)?
**A.** 3.74 fold of blood value

**Q.** What about the Kidney radioactivity (male rat, 2 h) of the same molecule?
**A.** 2.22 μg equivalent/g

**Q.** What about the “Kidney radioactivity, fold of blood value” (male rat, 2 h) of the same molecule?
**A.** 4.79 fold of blood value

**Q.** What about the Liver radioactivity (male rat, 2 h) of the same molecule?
**A.** 3.20 μg equivalent/g

**Q.** And the “Liver radioactivity, fold of blood value” (male rat, 2 h)?
**A.** 6.97 fold of blood value

**Q.** What about the Lung radioactivity (male rat, 2 h) of the same molecule?
**A.** 2.09 μg equivalent/g

**Q.** What about the “Lung radioactivity, fold of blood value” (male rat, 2 h) of the same molecule?
**A.** 4.51 fold of blood value

**Q.** What about the Pancreas radioactivity (male rat, 2 h) of the same molecule?
**A.** 2.78 μg equivalent/g

**Q.** And the “Pancreas radioactivity, fold of blood value” (male rat, 2 h)?
**A.** 6.00 fold of blood value

**Q.** What about the Pituitary gland radioactivity (male rat, 2 h) of the same molecule?
**A.** 1.84 μg equivalent/g

**Q.** What about the “Pituitary gland radioactivity, fold of blood value” (male rat, 2 h) of the same molecule?
**A.** 3.97 fold of blood value

**Q.** And the Salivary gland radioactivity (male rat, 2 h)?
**A.** 2.14 μg equivalent/g

**Q.** And the “Salivary gland radioactivity, fold of blood value” (male rat, 2 h)?
**A.** 4.62 fold of blood value

**Q.** What about the Skeletal muscle radioactivity (male rat, 2 h) of the same molecule?
**A.** 1.48 μg equivalent/g

**Q.** And the “Skeletal muscle radioactivity, fold of blood value” (male rat, 2 h)?
**A.** 3.20 fold of blood value

**Q.** What about the Spinal cord radioactivity (male rat, 2 h) of the same molecule?
**A.** 0.02 μg equivalent/g

**Q.** And the “Spinal cord radioactivity, fold of blood value” (male rat, 2 h)?
**A.** 0.04 fold of blood value

**Q.** What about the Spleen radioactivity (male rat, 2 h) of the same molecule?
**A.** 1.51 μg equivalent/g

**Q.** And the “Spleen radioactivity, fold of blood value” (male rat, 2 h)?
**A.** 3.29 fold of blood value

**Q.** What about the Stomach wall radioactivity (male rat, 2 h) of the same molecule?
**A.** 2.31 μg equivalent/g

**Q.** What about the “Stomach wall radioactivity, fold of blood value” (male rat, 2 h) of the same molecule?
**A.** 4.99 fold of blood value

**Q.** What about the Thymus radioactivity (male rat, 2 h) of the same molecule?
**A.** 1.37 μg equivalent/g

**Q.** What about the “Thymus radioactivity, fold of blood value” (male rat, 2 h) of the same molecule?
**A.** 2.96 fold of blood value

**Q.** And the Thyroid gland radioactivity (male rat, 2 h)?
**A.** 2.60 μg equivalent/g

**Q.** What about the “Thyroid gland radioactivity, fold of blood value” (male rat, 2 h) of the same molecule?
**A.** 5.62 fold of blood value

**Q.** What about the Adrenal gland radioactivity (male rat, 4 h) of the same molecule?
**A.** 0.81 μg equivalent/g

**Q.** And the “Adrenal gland radioactivity, fold of blood value” (male rat, 4 h)?
**A.** 2.24 fold of blood value

**Q.** And the “Blood (LSC) radioactivity” value (male rat, 4 h)?
**A.** 0.361 μg equivalent/g

**Q.** What about the Brain radioactivity (male rat, 4 h) of the same molecule?
**A.** 0.02 μg equivalent/g

**Q.** And the “Brain radioactivity, fold of blood value” (male rat, 4 h)?
**A.** 0.06 fold of blood value

**Q.** And the Brown fat radioactivity (male rat, 4 h)?
**A.** 0.52 μg equivalent/g

**Q.** What about the “Brown fat radioactivity, fold of blood value” (male rat, 4 h) of the same molecule?
**A.** 1.44 fold of blood value

**Q.** And the Eye radioactivity (male rat, 4 h)?
**A.** 0.14 μg equivalent/g

**Q.** And the “Eye radioactivity, fold of blood value” (male rat, 4 h)?
**A.** 0.39 fold of blood value

**Q.** And the Kidney radioactivity (male rat, 4 h)?
**A.** 1.74 μg equivalent/g

**Q.** What about the “Kidney radioactivity, fold of blood value” (male rat, 4 h) of the same molecule?
**A.** 4.87 fold of blood value

**Q.** What about the Liver radioactivity (male rat, 4 h) of the same molecule?
**A.** 2.42 μg equivalent/g

**Q.** What about the “Liver radioactivity, fold of blood value” (male rat, 4 h) of the same molecule?
**A.** 6.70 fold of blood value

**Q.** What about the Lung radioactivity (male rat, 4 h) of the same molecule?
**A.** 1.55 μg equivalent/g

**Q.** And the “Lung radioactivity, fold of blood value” (male rat, 4 h)?
**A.** 4.29 fold of blood value

**Q.** And the Pancreas radioactivity (male rat, 4 h)?
**A.** 2.08 μg equivalent/g

**Q.** And the “Pancreas radioactivity, fold of blood value” (male rat, 4 h)?
**A.** 5.76 fold of blood value

**Q.** What about the Pituitary gland radioactivity (male rat, 4 h) of the same molecule?
**A.** 1.65 μg equivalent/g

**Q.** What about the “Pituitary gland radioactivity, fold of blood value” (male rat, 4 h) of the same molecule?
**A.** 4.57 fold of blood value

**Q.** What about the Salivary gland radioactivity (male rat, 4 h) of the same molecule?
**A.** 1.59 μg equivalent/g

**Q.** What about the “Salivary gland radioactivity, fold of blood value” (male rat, 4 h) of the same molecule?
**A.** 4.40 fold of blood value

**Q.** What about the Skeletal muscle radioactivity (male rat, 4 h) of the same molecule?
**A.** 1.16 μg equivalent/g

**Q.** What about the “Skeletal muscle radioactivity, fold of blood value” (male rat, 4 h) of the same molecule?
**A.** 3.21 fold of blood value

**Q.** What about the Spinal cord radioactivity (male rat, 4 h) of the same molecule?
**A.** 0.02 μg equivalent/g

**Q.** What about the “Spinal cord radioactivity, fold of blood value” (male rat, 4 h) of the same molecule?
**A.** 0.06 fold of blood value

**Q.** And the Spleen radioactivity (male rat, 4 h)?
**A.** 0.82 μg equivalent/g

**Q.** And the “Spleen radioactivity, fold of blood value” (male rat, 4 h)?
**A.** 2.27 fold of blood value

**Q.** What about the Stomach wall radioactivity (male rat, 4 h) of the same molecule?
**A.** 1.32 μg equivalent/g

**Q.** What about the “Stomach wall radioactivity, fold of blood value” (male rat, 4 h) of the same molecule?
**A.** 3.66 fold of blood value

**Q.** What about the Thymus radioactivity (male rat, 4 h) of the same molecule?
**A.** 1.33 μg equivalent/g

**Q.** What about the “Thymus radioactivity, fold of blood value” (male rat, 4 h) of the same molecule?
**A.** 3.68 fold of blood value

**Q.** What about the Thyroid gland radioactivity (male rat, 4 h) of the same molecule?
**A.** 1.19 μg equivalent/g

**Q.** What about the “Thyroid gland radioactivity, fold of blood value” (male rat, 4 h) of the same molecule?
**A.** 3.30 fold of blood value

**Q.** And the “Blood (LSC) radioactivity” value [1]?
**A.** 2.474 μg equivalent/g

**Q.** And the Fetus radioactivity [1]?
**A.** 0.03 μg equivalent/g

**Q.** What about the “Fetus radioactivity, fold of blood value” [1] of the same molecule?
**A.** 0.01 fold of blood value

**Q.** And the Placenta radioactivity [1]?
**A.** 6.42 μg equivalent/g

**Q.** What about the “Placenta radioactivity, fold of blood value” (from here on “Placenta radioactivity, fold”) [1] of the same molecule?
**A.** 2.59 fold of blood value

**Q.** And the “Blood (LSC) radioactivity” value [2]?
**A.** 0.864 μg equivalent/g

**Q.** What about the Fetus radioactivity [2] of the same molecule?
**A.** 0.06 μg equivalent/g

**Q.** What about the “Fetus radioactivity, fold of blood value” [2] of the same molecule?
**A.** 0.07 fold of blood value

**Q.** And the Placenta radioactivity [2]?
**A.** 2.86 μg equivalent/g

**Q.** What about the “Placenta radioactivity, fold” value [2] of the same molecule?
**A.** 3.31 fold of blood value

**Q.** And the “Blood (LSC) radioactivity” value [3]?
**A.** 0.282 μg equivalent/g

**Q.** What about the Fetus radioactivity [3] of the same molecule?
**A.** 0.07 μg equivalent/g

**Q.** What about the “Fetus radioactivity, fold of blood value” [3] of the same molecule?
**A.** 0.25 fold of blood value

**Q.** And the Placenta radioactivity [3]?
**A.** 1.02 μg equivalent/g

**Q.** What about the “Placenta radioactivity, fold” value [3] of the same molecule?
**A.** 3.62 fold of blood value

**Q.** What about the “Blood (LSC) radioactivity” value [4] of the same molecule?
**A.** 0.24 μg equivalent/g

**Q.** And the Fetus radioactivity [4]?
**A.** 0.03 μg equivalent/g

**Q.** What about the “Fetus radioactivity, fold of blood value” [4] of the same molecule?
**A.** 0.13 fold of blood value

**Q.** What about the Placenta radioactivity [4] of the same molecule?
**A.** 0.39 μg equivalent/g

**Q.** And the “Placenta radioactivity, fold” value [4]?
**A.** 1.63 fold of blood value

**Q.** What about the “Brain and spinal tissue penetration (QWBA conclusion)” value (rats) of the same molecule?
**A.** effectively excluded from the brain and spinal tissues by the blood brain barrier

**Q.** And the “Radioactivity levels in brain, spinal cord and fetus” value (rats)?
**A.** < 0.25 fold of blood levels
